Assays:
[1] = system: NAHA activity from Grass pollen; test: NAHA activity assay, grass pollen; type: biochemical; conditions: Grass pollen
Description: (§1) In order to determine NAHA activity in different samples, the technology in WO 98/033934 was employed: A sample containing a dried or freeze dried organism is added to a buffer solution containing 4-Methylumbelliferyl N-acetyl-β-D-glucosaminide in a concentration of 20 μM. The reaction-time is varied depending on the ambient temperature and according to a reaction-time/temperature data sheet previously developed for fungal NAHA activity at various temperatures, and is 30 minutes at 23° C. The resulting fluorescence formed during the reaction time is monitored in a calibrated fluorometer.
(§2) Experiments were conducted where varying concentrations of AgNO3 was added to an analysis substrate. Furthermore, the experiments where performed on dried or freeze dried materials where both intact and fragmented cells are to be expected to be present.
(§3) Experiments analogous to those in example 1 were carried out, but instead of using non-specific inhibitors, the effect of different concentrations of DNJNAc on the NAHA activity in various biomass containing samples was investigated.

[2] = system: NAHA activity from Ambrosia psilostachya (Rag weed pollen); test: NAHA activity assay, rag weed pollen; type: biochemical
Description: as §1, §2, §3

[3] = system: NAHA activity from Mucor hiemalis; test: NAHA activity assay, Mucor hiemalis; type: biochemical
Description: as §1, §2, §3

[4] = system: NAHA activity from Birch pollen; test: NAHA activity assay, birch pollen; type: biochemical; conditions: Birch sollen
Description: as §1, §2, §3

[5] = system: NAHA activity from Alternaria tenuissima; test: NAHA activity assay, Alternaria tenuissima; type: biochemical
Description: as §1, §3

[6] = system: NAHA activity from Aureobasidium pullulans; test: NAHA activity assay, Aureobasidium pullulans; type: biochemical
Description: as §1, §2, §3

[7] = system: NAHA activity from Human skin cells; test: NAHA activity assay, human skin cells; type: biochemical
Description: as §1, §2, §3

[8] = system: NAHA activity from Cladosporium sphaerospermum; test: NAHA activity assay, Cladosporium sphaerospermum; type: biochemical; conditions: Chladosporium sphaerosperm
Description: as §1, §2, §3

fungal NAHA activity = test: NAHA activity assay, fungal sources overall; type: biochemical, fungi
Description: as §1, §2, §3
The experiments were performed with whole cell/organism cultures rather than purified enzyme, which is normally used in experiments on specific inhibition. It is plausible, though, that the surprising non-specific inhibition effect observed for Ag^+ and Hg^+ could be due to the inhibitors being delayed in physically contacting the NAHA enzyme in the fungi when compared to other types of biomass.

[9] = system: NAHA activity from Graham-flour; test: NAHA activity assay (4-methylumbelliferyl N-acetyl-β-D-glucosaminide, fluorescence), Graham-flour; type: biochemical; conditions: Graham Hour
Description: as §1, §2, §3

[10] = system: NAHA activity from Acremonium spp.; test: NAHA activity assay, Acremonium spp.; type: biochemical; conditions: Acremonium sp.
Description: as §1, §2, §3

[11] = system: NAHA activity from Lepidoglyphus destructor (Storage mite); test: NAHA activity assay, storage mite; type: biochemical; conditions: Lepidoglyphus destructor (Storage mite)
Description: as §1, §2, §3

[12] = system: NAHA activity from Penicillium commune; test: NAHA activity assay, Penicillium commune; type: biochemical
Description: as §1, §3

[13] = system: NAHA activity from Cat dander; test: NAHA activity assay, cat dander; type: biochemical
Description: as §1, §2, §3

[14] = system: NAHA activity from Aspergillus fumigatus; test: NAHA activity assay, Aspergillus fumigatus (Table 4b, state not given); type: biochemical
Description: as §1, §3

[15] = system: NAHA activity from Fusarium culmorum; test: NAHA activity assay, Fusarium culmorum; type: biochemical
Description: as §1, §2, §3

[16] = system: NAHA activity from Penicillium crysogenum; test: NAHA activity assay, Penicillium crysogenum; type: biochemical; conditions: Penicillium chrysogenum
Description: as §1, §2, §3

[17] = system: NAHA activity from Mugworth pollen; test: NAHA activity assay, mugworth pollen; type: biochemical
Description: as §1, §2, §3

[18] = system: NAHA activity from Trichoderma harzianum; test: NAHA activity assay, Trichoderma harzianum; type: biochemical
Description: as §1, §3

[19] = system: NAHA activity from Chaetomium globosum; test: NAHA activity assay, Chaetomium globosum; type: biochemical
Description: as §1, §3

non-fungal NAHA activity = test: NAHA activity assay, non-fungal sources overall; type: biochemical
Description: as §1, §2, §3

[20] = system: NAHA activity from Stachybotrys chartarum; test: NAHA activity assay, Stachybotrys chartarum; type: biochemical
Description: as §1, §2, §3

## CC(=O)N[C@H]1CN[C@H](CO)[C@@H](O)[C@@H]1O [DNJNAc, 2-Acetamido-1,2-dideoxynojirimycin]
[1]; DNJNAc 24.5 μM
  NAHA activity, 0 μM DNJNAc = 100%: 41%
[1]; DNJNAc 49 μM
  NAHA activity, 0 μM DNJNAc = 100%: 37%
[1]; DNJNAc 98 μM
  NAHA activity, 0 μM DNJNAc = 100%: 30%
[1]; DNJNAc 196 μM
  NAHA activity, 0 μM DNJNAc = 100%: 20%
[2]; DNJNAc 24.5 μM
  NAHA activity, 0 μM DNJNAc = 100%: 8%
[2]; DNJNAc 49 μM
  NAHA activity, 0 μM DNJNAc = 100%: 6%
[2]; DNJNAc 98 μM
  NAHA activity, 0 μM DNJNAc = 100%: 5%
[2]; DNJNAc 196 μM
  NAHA activity, 0 μM DNJNAc = 100%: 4%
[3]; DNJNAc 24.5 μM
  NAHA activity, 0 μM DNJNAc = 100%: 58%
[3]; DNJNAc 49 μM
  NAHA activity, 0 μM DNJNAc = 100%: 37%
[3]; DNJNAc 98 μM
  NAHA activity, 0 μM DNJNAc = 100%: 45%
[3]; DNJNAc 196 μM
  NAHA activity, 0 μM DNJNAc = 100%: 25%
[4]; DNJNAc 24.5 μM
  NAHA activity, 0 μM DNJNAc = 100%: 10%
[4]; DNJNAc 49 μM
  NAHA activity, 0 μM DNJNAc = 100%: 9%
[4]; DNJNAc 98 μM
  NAHA activity, 0 μM DNJNAc = 100%: 8%
[4]; DNJNAc 196 μM
  NAHA activity, 0 μM DNJNAc = 100%: 9%
[5]; DNJNAc 24.5 μM
  NAHA activity, 0 μM DNJNAc = 100%: 72%
[5]; DNJNAc 49 μM
  NAHA activity, 0 μM DNJNAc = 100%: 79%
[5]; DNJNAc 98 μM
  NAHA activity, 0 μM DNJNAc = 100%: 58%
[5]; DNJNAc 196 μM
  NAHA activity, 0 μM DNJNAc = 100%: 48%
[6]; DNJNAc 24.5 μM
  NAHA activity, 0 μM DNJNAc = 100%: 56%
[6]; DNJNAc 49 μM
  NAHA activity, 0 μM DNJNAc = 100%: 67%
[6]; DNJNAc 98 μM
  NAHA activity, 0 μM DNJNAc = 100%: 50%
[6]; DNJNAc 196 μM
  NAHA activity, 0 μM DNJNAc = 100%: 27%
[7]; DNJNAc 24.5 μM
  NAHA activity, 0 μM DNJNAc = 100%: 3%
[7]; DNJNAc 49 μM
  NAHA activity, 0 μM DNJNAc = 100%: 1%
[7]; DNJNAc 98 μM
  NAHA activity, 0 μM DNJNAc = 100%: 1%
[7]; DNJNAc 196 μM
  NAHA activity, 0 μM DNJNAc = 100%: 1%
[8]; DNJNAc 24.5 μM
  NAHA activity, 0 μM DNJNAc = 100%: 43%
[8]; DNJNAc 49 μM
  NAHA activity, 0 μM DNJNAc = 100%: 32%
[8]; DNJNAc 98 μM
  NAHA activity, 0 μM DNJNAc = 100%: 49%
[8]; DNJNAc 196 μM
  NAHA activity, 0 μM DNJNAc = 100%: 21%
Fungal NAHA activity; 24.5 μM in the assay substrate
  fungal NAHA activity retained, average: 83%
Fungal NAHA activity; 196 μM
  fungal NAHA activity retained, average: 60%
[9]; DNJNAc 24.5 μM
  NAHA activity, 0 μM DNJNAc = 100%: 14%
[9]; DNJNAc 49 μM
  NAHA activity, 0 μM DNJNAc = 100%: 9%
[9]; DNJNAc 98 μM
  NAHA activity, 0 μM DNJNAc = 100%: 6%
[9]; DNJNAc 196 μM
  NAHA activity, 0 μM DNJNAc = 100%: 6%
[10]; DNJNAc 24.5 μM
  NAHA activity, 0 μM DNJNAc = 100%: 99%
[10]; DNJNAc 49 μM
  NAHA activity, 0 μM DNJNAc = 100%: 92%
[10]; DNJNAc 98 μM
  NAHA activity, 0 μM DNJNAc = 100%: 80%
[10]; DNJNAc 196 μM
  NAHA activity, 0 μM DNJNAc = 100%: 76%
[11]; DNJNAc 24.5 μM
  NAHA activity, 0 μM DNJNAc = 100%: 3%
[11]; DNJNAc 49 μM
  NAHA activity, 0 μM DNJNAc = 100%: 2%
[11]; DNJNAc 98 μM
  NAHA activity, 0 μM DNJNAc = 100%: 1%
[11]; DNJNAc 196 μM
  NAHA activity, 0 μM DNJNAc = 100%: 0%
[12]; DNJNAc 24.5 μM
  NAHA activity, 0 μM DNJNAc = 100%: 76%
[12]; DNJNAc 49 μM
  NAHA activity, 0 μM DNJNAc = 100%: 62%
[12]; DNJNAc 98 μM
  NAHA activity, 0 μM DNJNAc = 100%: 45%
[12]; DNJNAc 196 μM
  NAHA activity, 0 μM DNJNAc = 100%: 22%
[13]; DNJNAc 24.5 μM
  NAHA activity, 0 μM DNJNAc = 100%: 7%
[13]; DNJNAc 49 μM
  NAHA activity, 0 μM DNJNAc = 100%: 5%
[13]; DNJNAc 98 μM
  NAHA activity, 0 μM DNJNAc = 100%: 3%
[13]; DNJNAc 196 μM
  NAHA activity, 0 μM DNJNAc = 100%: 2%
[14]; DNJNAc 24.5 μM
  NAHA activity, 0 μM DNJNAc = 100%: 122%
[14]; DNJNAc 49 μM
  NAHA activity, 0 μM DNJNAc = 100%: 110%
[14]; DNJNAc 98 μM
  NAHA activity, 0 μM DNJNAc = 100%: 89%
[14]; DNJNAc 196 μM
  NAHA activity, 0 μM DNJNAc = 100%: 88%
[15]; DNJNAc 24.5 μM
  NAHA activity, 0 μM DNJNAc = 100%: 85%
[15]; DNJNAc 49 μM
  NAHA activity, 0 μM DNJNAc = 100%: 82%
[15]; DNJNAc 98 μM
  NAHA activity, 0 μM DNJNAc = 100%: 98%
[15]; DNJNAc 196 μM
  NAHA activity, 0 μM DNJNAc = 100%: 95%
[16]; DNJNAc 24.5 μM
  NAHA activity, 0 μM DNJNAc = 100%: 89%
[16]; DNJNAc 49 μM
  NAHA activity, 0 μM DNJNAc = 100%: 86%
[16]; DNJNAc 98 μM
  NAHA activity, 0 μM DNJNAc = 100%: 74%
[16]; DNJNAc 196 μM
  NAHA activity, 0 μM DNJNAc = 100%: 76%
[17]; DNJNAc 24.5 μM
  NAHA activity, 0 μM DNJNAc = 100%: 8%
[17]; DNJNAc 49 μM
  NAHA activity, 0 μM DNJNAc = 100%: 6%
[17]; DNJNAc 98 μM
  NAHA activity, 0 μM DNJNAc = 100%: 5%
[17]; DNJNAc 196 μM
  NAHA activity, 0 μM DNJNAc = 100%: 4%
[18]; DNJNAc 24.5 μM
  NAHA activity, 0 μM DNJNAc = 100%: 120%
[18]; DNJNAc 49 μM
  NAHA activity, 0 μM DNJNAc = 100%: 93%
[18]; DNJNAc 98 μM
  NAHA activity, 0 μM DNJNAc = 100%: 92%
[18]; DNJNAc 196 μM
  NAHA activity, 0 μM DNJNAc = 100%: 83%
[19]; DNJNAc 24.5 μM
  NAHA activity, 0 μM DNJNAc = 100%: 88%
[19]; DNJNAc 49 μM
  NAHA activity, 0 μM DNJNAc = 100%: 91%
[19]; DNJNAc 98 μM
  NAHA activity, 0 μM DNJNAc = 100%: 92%
[19]; DNJNAc 196 μM
  NAHA activity, 0 μM DNJNAc = 100%: 81%
non-fungal NAHA activity; 24.5 μM in the assay substrate
  non fungal activity retained, average: 11%
non-fungal NAHA activity; 196 μM
  non-fungal NAHA activity retained, average of the control: 5%
[20]; DNJNAc 24.5 μM
  NAHA activity, 0 μM DNJNAc = 100%: 90%
[20]; DNJNAc 98 μM
  NAHA activity, 0 μM DNJNAc = 100%: 97%
[20]; DNJNAc 196 μM
  NAHA activity, 0 μM DNJNAc = 100%: 85%
